Measured values taken from patent US8409595B2, “Method for decreasing sebum production” (Medicis Pharmaceutical Corporation, priority 2003, dated 2013).

What was measured:
[1] = system: sebaceous glands of Syrian hamster ears; experiment: Syrian hamster ear model of sebum secretion, HPLC of cholesterol ester and wax ester; format: in vivo; details: topical 1 w/v %, 4 weeks; for % Reduction in CE, change vs. relevant vehicle control: cholesterol ester; for % Reduction in CE, change vs. relevant vehicle control / % Reduction in WE, change vs. relevant vehicle control: twice daily, five days a week, right ear, negative = increase; for Sum CE + WE, change vs. relevant vehicle control: summation of % reduction in CE and in WE; for % Reduction in WE, change vs. relevant vehicle control: wax ester; for effect on CE and WE (sebum) secretion, in words: compared to the control
Experimental: Luderschmidt et al describes an animal model for testing whether compounds are capable of modulating sebum secretion. Arch. Derm. Res. 258, 185-191 (1977). This model uses Syrian hamsters, whose ears contain sebaceous glands. Compounds can be administered to these animals to determine if a test agent is capable of modulating sebum production
Testing for sebum inhibition was carried out in the following manner. Male Syrian hamsters aged 9 to 10 weeks were introduced into the laboratory environment and acclimated for 2 weeks prior to use in the study. Each group consisted of 5 animals and were run in parallel with vehicle and positive controls. Prior to administration, 10 mg of each compound was dissolved in 1 mL of Universal solvent (ethanol/propylene glycol (70/30% v/v) to achieve a final concentration of 1 w/v %.
Animals were dosed topically twice daily, five days a week, for 4 weeks. Each dose consisted of 25 micro liters of vehicle control or drug. The dose was applied to the ventral surfaces of both the right and left ears. All animals were sacrificed approximately 18-24 hours after the final dose. The right ears were collected from each animal and used for sebum analysis.
The ears were prepped for HPLC analysis in the following manner. One 8 mm distal biopsy punch was taken, just above the anatomical “V” mark in the ear to normalize the sample area. The punch was pulled apart. The ventral biopsy surface (the area where the topical dose was directly applied to the sebaceous glands) was retained for testing and the dorsal surface of the biopsy punch was discarded.
Tissue samples were blown with N2 gas and stored at −80° C. under nitrogen until HPLC analysis. In addition to ear samples, an aliquot of each drug and vehicle (at least 250 ul) was also stored at −80° C. for inclusion in the HPLC analysis.
HPLC analysis was carried out on an extract of the tissue sample. Tissue samples were contacted with 3 ml of solvent (a 4:1 admixture of 2,2,4-trimethylpentane and isopropyl alcohol). The mixture was shaken for 15 minutes and stored overnight at room temperature, protected from light. The next morning 1 milliliter of water was added to the sample and shaken for 15 minutes. The sample was then centrifuged at approximately 1500 rpm for 15 minutes. Two ml of the organic phase (top layer) was transferred to a glass vial, dried at 37° C., under nitrogen, for approximately 1 hour, and then lyophilized for approximately 48 hours. The samples were then removed from the lyophilizer and each vial was reconstituted with 600 μl of solvent A (trimethylpentane/tetrahydrofuran (99:1). The samples were then recapped and vortexed for 5 minutes.
200 μl of each sample was then transferred to a pre-labeled 200 μl HPLC vial with 200 μL glass inserts. The HPLC vials were placed in the autosampler tray for the Agilent 1100 series HPLC unit. The Agilent 1100 HPLC system consisted of a thermostated autosampler, a quarternary pump, a column heater, and an A/D interface module. All components were controlled by Agilent ChemStation software. A Waters Spherisorb S3W 4.6×100 mm analytical column was maintained at 30° C. by the Agilent column heater unit. The HPLC autosampler was programmed to maintain the sample temperature at 20° C. throughout the run.
10 uL of each sample was injected in triplicate into the column. Two solvents were used for the solvent gradient. Solvent A was an admixture of trimethylpentane and tetrahydrofuran (99:1). Solvent B was ethylacetate. The gradient utilized is described in the table below: […]
The Sedex 75 Evaporative Light Scattering Detector (ELSD) was operated at 45° C. with a gain of 5, and N2 pressure maintained at 3.1 bar. Analog signal obtained by the instrument was sent to the Agilent A/D interface module where it was converted to a digital output. The conversion was based on a 10000 mAU/volt set point and the data rate was set at 10 Hz (0.03 min). […]

sebum secretion = details: in vivo; cited from earlier work

| Compound | % Reduction in CE, change vs. relevant vehicle control [1] [%] | Sum CE + WE, change vs. relevant vehicle control [1] [%] | % Reduction in WE, change vs. relevant vehicle control [1] [%] | effect on CE and WE (sebum) secretion, in words [1] | reduction of sebum secretion (sebum secretion) |
| --- | --- | --- | --- | --- | --- |
| CCCCCCCCCCCCn1nnc(CC(=O)Nc2c(C)nn(C)c2C)n1 [Compound 18] | −23 | −72 | −49 |  |  |
| CC(C)c1cccc(C(C)C)c1NC(=O)Nc1nnn(CCCCCCCCCCCO)n1 [Compound 26] | 28 | 37 | 9 |  |  |
| CCOC(=O)CN(C(=O)CC(=O)Nc1c(C(C)C)cccc1C(C)C)c1ccccc1 [Compound 7] | −67 | −151 | −84 |  |  |
| CC(C)c1cccc(C(C)C)c1NC(=O)CC(=O)N(c1ccccc1)C(C)C [Compound 8] | −27 | −97 | −70 |  |  |
| COc1ccc(CN(C(=O)CC(=O)Nc2c(C(C)C)cccc2C(C)C)c2ccccn2)cc1 [Compound 3] | 51 | 84 | 33 | comparable results |  |
| COc1cccc2c1CCC(NC(=O)Nc1c(C(C)C)cccc1C(C)C)C2 (stereo not drawn) [Compound 30] | −10 | −44 | −34 |  |  |
| CC(C)c1cccc(C(C)C)c1NC(=O)NCC1(c2ccccc2)CC1 [Compound 28] | 0 | −8 | −8 |  |  |
| CC(C)c1cccc(C(C)C)c1NC(=O)CC(=O)CC(c1ccccc1)c1ccccc1 [Compound 9] | 7 | 9 | 2 |  |  |
| CC(C)c1cccc(C(C)C)c1NC(=O)NCC1(c2cccc(CN3CCOCC3)c2)CCCC1 [Compound 24] | 20 | 21 | 1 |  |  |
| CCCCCCCCCCCCn1nnc(CNC(=O)Nc2c(C(C)C)cccc2C(C)C)n1 [Compound 19] | −6 | −5 | 1 |  |  |
| CC(C)c1cccc(C(C)C)c1NC(=O)NCC1(c2ccco2)CCC1 [Compound 20] | 4 | 3 | −1 |  |  |
| CSc1ccc(CN(C(=O)CC(=O)Nc2c(C(C)C)cccc2C(C)C)C(C)C)cc1 [Compound 2] | 65 | 96 | 31 | comparable results |  |
| CC(C)c1cccc(C(C)C)c1NC(=O)CC(=O)N(CCN(C)C)Cc1ccccc1 [Compound 4] | −1 | −19 | −18 |  |  |
| CCCCCCCCCCCCn1nnc(C(C(=O)Nc2c(C(C)C)cccc2C(C)C)c2ccccc2)n1 (stereo not drawn) [Compound 10] | −105 | −252 | −147 |  |  |
| CCCCCCCCCCCCCC(=O)CC(=O)Nc1c(C(C)C)cccc1C(C)C [Compound 14] | −8 | −23 | −15 |  |  |
| CC(C)c1cccc(C(C)C)c1NC(=O)NCC1(c2cccc(CN(CCO)CCO)c2)CCCC1 [Compound 23] | 4 | −80 | −84 |  |  |

| Compound | % Reduction in CE, change vs. relevant vehicle control [1] [%] | Sum CE + WE, change vs. relevant vehicle control [1] [%] | % Reduction in WE, change vs. relevant vehicle control [1] [%] | effect on CE and WE (sebum) secretion, in words [1] | reduction of sebum secretion (sebum secretion) |
| --- | --- | --- | --- | --- | --- |
| CCCCCCCC1CCC(C(=O)Nc2c(C(C)C)cccc2C(C)C)C(=O)O1 (stereo not drawn) [Compound 15] | 24 | 38 | 14 |  |  |
| CCCCCCCN(CCCCCSc1nc(-c2ccccc2)c(-c2ccccc2)[nH]1)C(=O)Nc1ccc(F)cc1F [Compound 22] | 20 | 24 | 4 |  |  |
| CC(C)c1cccc(C(C)C)c1NC(=O)NCC1(c2ccccn2)CCCC1 [Compound 17] | −56 | −120 | −64 |  |  |
| CC(C)c1cccc(C(C)C)c1NC(=O)NCC1(c2ccc(CO)cc2)CCCC1 [Compound 16] | −1 | −1 | 0 |  |  |
| CC(C)c1cccc(C(C)C)c1NC(=O)CC(=O)N(CCC#N)Cc1ccccc1 [Compound 6] | 23 | 22 | −1 |  |  |
| CCCCCCCCCCCCn1nnc(C(C(=O)Nc2c(OC)cc(OC)cc2OC)c2ccccc2)n1 (stereo not drawn) [Compound 11] | −5 | −11 | −6 |  |  |
| COc1ccc(CN(C(=O)CC(=O)Nc2c(C(C)C)cccc2C(C)C)c2ncccn2)cc1 [Compound 5] | 32 | 28 | −4 |  |  |
| CC1=C(/C=C/C(C)=C/C=C/C(C)=C\C(=O)O)C(C)(C)CCC1 [Accutane, isotretinoin] |  |  |  |  | up to 90% |
| CC(C)c1cccc(C(C)C)c1NC(=O)NCC1(c2ccccc2)CCOCC1 [Compound 13] | −7 | −14 | −7 |  |  |
| CC(C)c1cccc(C(C)C)c1NC(=O)NCC(C)c1ccccc1 (stereo not drawn) [Compound 27] | −17 | −40 | −23 |  |  |
| CC(C)c1cccc(C(C)C)c1NC(=O)NCCc1c[nH]c2ccccc12 [Compound 31] | 9 | 18 | 9 |  |  |
| COc1cc(OC)cc(C(NCC(=O)Nc2c(C(C)C)cccc2C(C)C)c2ccccc2)c1 (stereo not drawn) [Compound 25] | 10 | 7 | −3 |  |  |
| CCCCCCCCCCCCOP(=O)(CC(=O)Nc1c(C(C)C)cccc1C(C)C)c1ccccc1 (stereo not drawn) [Compound 12] | 48 | 92 | 44 |  |  |
| COc1ccccc1CN[C@@H](CNC(=O)Nc1c(C(C)C)cccc1C(C)C)c1ccccc1 [Compound 21] | 4 | 7 | 3 |  |  |
| CC(=O)OC(C(=O)N(CC(=O)Nc1c(C(C)C)cccc1C(C)C)Cc1ccccc1)c1ccccc1 (stereo not drawn) [Compound 29] | 19 | 30 | 11 |  |  |
